Values joined by “and” are separate entries in the source; they are usually repeats but may differ in a detail not shown here. Equal values may be shown once. Each block holds one compound with its values, some of them ahead of it.
Columns and labels:
BCL-2 = target: T1, BCL-2 (Homo sapiens, UniProt P10415); experiment: BCL-2 degradation by immunoblot in 293T cells; type: cell-based; settings: HEK-293T
T1 construct: endogenous in cells
Experimental: (§1) The DC50 and Dmax were calculated using Prism based on the ImageJ-quantified western blots in Supplementary Fig. 4. c, d AlphaLISA assay to determine the formation of BCL-xL/PROTAC/VHL-ELOC-ELOB (VCB) (c) or BCL-2/PROTAC/VCB (d) ternary complex in a cell-free condition. Data represent the mean of a single experiment with 2 technical replicates. Similar results were obtained in one more independent experiment. e, f NanoBRET assays evaluating intracellular BCL-xL/PROTAC/VCB (e) or BCL-2/PROTAC/VCB (f) ternary complex formation. […] Data are expressed as mean ± s.e.m. of three biological replicates. Source data are provided as a Source data file.
(§2) Representative immunoblots are shown in (a–d) and β-actin was used as a loading control in all immunoblot analyses. The normalized protein content in the immunoblots is presented as mean values ± s.e.m. (n = 3 biologically independent experiments) in the bar graph (bottom panel). e, f The formation of BCL-xL/PROTAC/VCB (e) and BCL-2/PROTAC/VCB (f) ternary complexes in a cell-free condition was determined by AlphaLISA assay. Data represent the mean of a single experiment with 2 technical replicates. […] Source data are provided as a Source data file.
(§3) Cells were collected, washed once with ice-cold phosphate-buffered saline, pH 7.2 (PBS, cat. no. 20012027; Thermo Fisher Scientific) and lysed in RIPA lysis buffer (Cat. No. BP-115DG, Boston Bio Products, Ashland, MA, USA) supplemented with protease and phosphatase inhibitor cocktails (Cat. No. PPC1010, Sigma-Aldrich, St. Louis, MO, USA) through sonication. The samples were centrifuged at 14,000 r.p.m. for 5 min and the supernatants were transferred into a new tube. The protein concentration in the supernatants was determined using the Pierce BCA protein Assay kit (cat. no. 23225, Thermo Fisher Scientific). The protein concentration was normalized, and the samples were reduced in 4× Laemmli’s SDS-sample buffer (cat. no. BP-110R, Boston Bio Products) and denatured at 95 °C for 5 min. An equal amount of protein samples (20–40 μg per lane) were resolved using precast 4–20% Tris-glycine gels (Mini-PROTEAN TGX, cat. no. 456–1094, Bio-Rad), and resolved proteins were transferred onto 0.2-µm pore size polyvinylidene difluoride (PVDF) blotting membranes (cat. no. LC2002, Thermo Fisher Scientific) using mini trans-blot electrophoretic transfer cell (Bio-Rad). The membranes were blocked with non-fat dry milk (5% wt/vol) in 1× Tris-buffered saline-Tween-20 (TBST, cat. no. J77500, Affymetrix) for 1 h at room temperature, and were subsequently probed with primary antibodies at a predetermined optimal concentration in non-fat dry milk (5% wt/vol in TBST) overnight at 4 °C. The membranes were washed three times (5 min each) in TBST and then incubated with horse radish peroxidase (HRP)-conjugated secondary antibodies for 1 h at room temperature. Following sufficient washing with TBST, the membranes were exposed with chemiluminescent HRP substrate (cat. no. WBKLS0500, MilliporeSigma), and the signal was detected using the ChemiDoc MP Imaging System (Bio-Rad) and quantified using the ImageJ (v1.53a) software from NIH.

[1] = target: T2, BCL-xL/PROTAC/VHL-ELOC-ELOB (VCB) ternary complex (Homo sapiens, UniProt P40337+Q07817); experiment: AlphaLISA ternary complex formation, cell-free, BCL-xL; type: binding; settings: for AlphaLISA signal, BCL-xL/PROTAC/VCB: Fig. 2c raw Alpha reads
T2 construct: pGEX-6P-1-VHL(54-213) (pDL2200) was constructed through Gibson assembly method; made in house; host or cells: bacterial culture (LB broth, IPTG induction)
Experimental: (§4) AlphaLISA assay was used to evaluate the in vitro ternary complex formation between target proteins (BCL-xL or BCL-2), PROTAC and E3 ligase (VCB complex). In each well, 5 nM His-tagged BCL-xL or BCL-2 proteins and 5 nM GST-VCB complex was incubated with varying concentrations of compounds in fourfold serial dilutions, to a final volume of 40 µl in a 96-well PCR plate. After incubation at room temperature for 30 min, 5 µl alpha glutathione-donor beads (Cat. No. 6765300, PerkinElmer) were added to each well (20 µg/ml final concentration) and incubated for another 15 min. Thereafter, 5 µL 6× His-acceptor beads were added to each well (20 µg/ml final concentration) and incubated for an additional 45 min at room temperature. Thereafter, 17 µl of each sample was transferred in adjacent wells of a 384-well proxy plate, and the plate was scanned using the Alpha program on Biotek’s Synergy Neo2 multimode plate reader. The data were expressed as average AlphaLISA signal and plotted against different concentrations of compounds using GraphPad Prism 9 software.

BCL-xL = target: T3, BCL-xL (Homo sapiens, UniProt Q07817); experiment: BCL-xL degradation by immunoblot in 293T cells; type: cell-based
T3 construct: endogenous in cells
Experimental: as §1, §2, §3

[2] = target: T4, BCL-2/PROTAC/VCB ternary complex (Homo sapiens, UniProt P10415+P40337); experiment: AlphaLISA ternary complex formation, cell-free, BCL-2; type: binding; settings: for AlphaLISA signal, BCL-2/PROTAC/VCB: Fig. 2d raw Alpha reads
T4 construct: pGEX-6P-1-VHL(54-213) (pDL2200) was constructed through Gibson assembly method; made in house; host or cells: bacterial culture (LB broth, IPTG induction)
Experimental: as §4

Kasumi-1 cells = experiment: Viability (MTS) of Kasumi-1 AML cells; type: cell-based, human; settings: Fig. 7a

T2 sequence (Q07817 1-212 limits assumed): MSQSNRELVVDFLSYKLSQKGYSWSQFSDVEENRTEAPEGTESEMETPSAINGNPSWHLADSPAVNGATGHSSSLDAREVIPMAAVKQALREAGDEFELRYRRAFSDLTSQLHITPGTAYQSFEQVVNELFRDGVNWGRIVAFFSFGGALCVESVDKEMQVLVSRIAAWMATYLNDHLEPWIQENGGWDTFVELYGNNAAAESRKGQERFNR
T2 sequence (P40337 54-213 limits assumed): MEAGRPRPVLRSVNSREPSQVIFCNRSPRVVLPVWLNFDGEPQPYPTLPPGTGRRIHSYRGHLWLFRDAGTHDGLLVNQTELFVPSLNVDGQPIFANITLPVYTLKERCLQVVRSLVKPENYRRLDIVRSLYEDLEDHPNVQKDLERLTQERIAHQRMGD
T2 sequence (Q15369 17-112 partner limits assumed): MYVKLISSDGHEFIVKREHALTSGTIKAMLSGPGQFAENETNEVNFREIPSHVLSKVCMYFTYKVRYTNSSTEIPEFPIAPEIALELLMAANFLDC
T2 sequence (Q15370 whole entry partner): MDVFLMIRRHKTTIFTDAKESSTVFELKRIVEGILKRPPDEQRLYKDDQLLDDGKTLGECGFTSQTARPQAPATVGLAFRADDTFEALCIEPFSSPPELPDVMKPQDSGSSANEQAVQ
T3 sequence (Q07817 whole entry): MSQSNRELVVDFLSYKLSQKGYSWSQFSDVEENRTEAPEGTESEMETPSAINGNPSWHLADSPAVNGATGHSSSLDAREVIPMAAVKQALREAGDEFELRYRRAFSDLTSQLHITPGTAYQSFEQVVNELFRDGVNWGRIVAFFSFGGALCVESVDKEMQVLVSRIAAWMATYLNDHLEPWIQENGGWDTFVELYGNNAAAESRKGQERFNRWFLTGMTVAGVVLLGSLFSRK
T4 sequence (P10415 1-211 limits assumed): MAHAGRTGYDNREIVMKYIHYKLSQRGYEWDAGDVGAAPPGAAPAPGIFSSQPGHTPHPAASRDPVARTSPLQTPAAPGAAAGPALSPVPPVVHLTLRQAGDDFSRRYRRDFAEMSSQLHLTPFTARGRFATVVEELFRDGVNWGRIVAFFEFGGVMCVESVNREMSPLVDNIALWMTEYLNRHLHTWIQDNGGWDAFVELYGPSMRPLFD
T4 sequence (P40337 54-213 limits assumed): as the sequence (P40337 54-213 limits assumed) above
T4 sequence (Q15369 17-112 partner limits assumed): as the sequence (Q15369 17-112 partner limits assumed) above
T4 sequence (Q15370 whole entry partner): as the sequence (Q15370 whole entry partner) above
T1 sequence (P10415 whole entry): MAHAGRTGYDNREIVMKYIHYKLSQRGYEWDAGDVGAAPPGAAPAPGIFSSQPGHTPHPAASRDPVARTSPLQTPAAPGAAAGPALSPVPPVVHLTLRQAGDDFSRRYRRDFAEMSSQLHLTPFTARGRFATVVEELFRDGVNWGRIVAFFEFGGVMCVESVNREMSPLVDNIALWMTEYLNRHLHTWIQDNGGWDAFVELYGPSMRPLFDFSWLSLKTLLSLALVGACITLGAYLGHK

Dmax (BCL-2): 47%
in vitro ternary complex formation with BCL-xL (in words) ([1]; AlphaLISA, cell-free, Fig. 2c, 3e): stronger ternary complexes
AlphaLISA signal, BCL-xL/PROTAC/VCB ([1]; compound 0.191 nM): 14064 and 15339
AlphaLISA signal, BCL-xL/PROTAC/VCB ([1]; compound 0.763 nM): 16647 and 16446
AlphaLISA signal, BCL-xL/PROTAC/VCB ([1]; compound 3.052 nM): 29664 and 30068
AlphaLISA signal, BCL-xL/PROTAC/VCB ([1]; compound 12.207 nM): 308120 and 297735
AlphaLISA signal, BCL-xL/PROTAC/VCB ([1]; compound 48.828 nM): 915794 and 868616
AlphaLISA signal, BCL-xL/PROTAC/VCB ([1]; compound 195.31 nM): 760327 and 820012
AlphaLISA signal, BCL-xL/PROTAC/VCB ([1]; compound 781.25 nM): 680312 and 708753
AlphaLISA signal, BCL-xL/PROTAC/VCB ([1]; compound 3125 nM): 257573 and 298187
AlphaLISA signal, BCL-xL/PROTAC/VCB ([1]; compound 12500 nM): 45345 and 53654
AlphaLISA signal, BCL-xL/PROTAC/VCB ([1]; compound 50000 nM): 21182 and 20463
BCL-xL degradation (in words) (BCL-xL; 293T cells, 16 h): partially degrade BCL-xL
DC50 (BCL-xL; 293T cells, four concentrations, 16 h, Fig. 2b, read-out: BCL-xL DC50): 316 nM
Dmax (BCL-xL; HEK-293T): 56%
in vitro ternary complex formation with BCL-2 (in words) ([2]; AlphaLISA, cell-free, Fig. 2d, 3f): stronger ternary complexes
AlphaLISA signal, BCL-2/PROTAC/VCB ([2]; compound 0.191 nM): 15183 and 13115
AlphaLISA signal, BCL-2/PROTAC/VCB ([2]; compound 0.763 nM): 15317 and 19455
AlphaLISA signal, BCL-2/PROTAC/VCB ([2]; compound 3.052 nM): 45755 and 47236
AlphaLISA signal, BCL-2/PROTAC/VCB ([2]; compound 12.207 nM): 410345 and 373015
AlphaLISA signal, BCL-2/PROTAC/VCB ([2]; compound 48.828 nM): 1136924 and 1140765
AlphaLISA signal, BCL-2/PROTAC/VCB ([2]; compound 195.31 nM): 1286256 and 1221888
AlphaLISA signal, BCL-2/PROTAC/VCB ([2]; compound 781.25 nM): 709163 and 786788
AlphaLISA signal, BCL-2/PROTAC/VCB ([2]; compound 3125 nM): 91120 and 92885
AlphaLISA signal, BCL-2/PROTAC/VCB ([2]; compound 12500 nM): 18341 and 15512
SMILES: Cc1ncsc1-c1ccc([C@H](C)NC(=O)[C@@H]2C[C@@H](O)CN2C(=O)[C@@H](NC(=O)CCCC(=O)N2CCN(CC3(C)CCC(c4ccc(Cl)cc4)=C(CN4CCN(c5ccc(C(=O)NS(=O)(=O)c6ccc(N[C@H](CCN7CCOCC7)CSc7ccccc7)c(S(=O)(=O)C(F)(F)F)c6)cc5)CC4)C3)CC2)C(C)(C)C)cc1 (stereo partly drawn) [PPC5]

SMILES: Cc1c(-c2c(-c3ccc(F)o3)sc3ncnc(O[C@H](Cc4ccccc4OCc4ccnn4CC(F)(F)F)C(=O)O)c23)ccc(OCCN2CCN(C)CC2)c1Cl [S63845]
Luminescence (raw plate reading) (Kasumi-1 cells; 3.90625 nM (plate column 2)): 585765 and 593361 and 588702 and 615617
Luminescence (raw plate reading) (Kasumi-1 cells; 7.8125 nM (plate column 3)): 614886 and 587762 and 581843 and 642033
Luminescence (raw plate reading) (Kasumi-1 cells; 15.625 nM (plate column 4)): 585793 and 568144 and 557931 and 596587
Luminescence (raw plate reading) (Kasumi-1 cells; 31.25 nM (plate column 5)): 583012 and 572945 and 570605 and 624151
Luminescence (raw plate reading) (Kasumi-1 cells; 62.5 nM (plate column 6)): 545426 and 545383 and 550949 and 588219
Luminescence (raw plate reading) (Kasumi-1 cells; 125 nM (plate column 7)): 511944 and 516519 and 502413 and 546675
Luminescence (raw plate reading) (Kasumi-1 cells; 250 nM (plate column 8)): 434681 and 438403 and 429749 and 470053
Luminescence (raw plate reading) (Kasumi-1 cells; 500 nM (plate column 9)): 365024 and 363596 and 364210 and 384218
Luminescence (raw plate reading) (Kasumi-1 cells; 1000 nM (plate column 10)): 263752 and 271433 and 266762 and 285013
Luminescence (raw plate reading) (Kasumi-1 cells; 2000 nM = 2U (plate column 11)): 165813 and 178184 and 172580 and 186041
Luminescence (raw plate reading) (Kasumi-1 cells; 4000 nM = 4U (plate column 12)): 112826 and 107734 and 101511 and 111059
Luminescence normalised to mean of the 0 concentration wells (= 100), viability (Kasumi-1 cells; 3.90625 (nM)): 85.5833 and 86.6931 and 86.0124 and 89.9448
Luminescence normalised to mean of the 0 concentration wells (= 100), viability (Kasumi-1 cells; 7.8125 (nM)): 89.838 and 85.875 and 85.0102 and 93.8043
Luminescence normalised to mean of the 0 concentration wells (= 100), viability (Kasumi-1 cells; 15.625 (nM)): 85.5874 and 83.0087 and 81.5166 and 87.1644
Luminescence normalised to mean of the 0 concentration wells (= 100), viability (Kasumi-1 cells; 31.25 (nM)): 85.181 and 83.7102 and 83.3683 and 91.1917
Luminescence normalised to mean of the 0 concentration wells (= 100), viability (Kasumi-1 cells; 62.5 (nM)): 79.6895 and 79.6832 and 80.4965 and 85.9418
Luminescence normalised to mean of the 0 concentration wells (= 100), viability (Kasumi-1 cells; 125 (nM)): 74.7976 and 75.4661 and 73.4051 and 79.872
Luminescence normalised to mean of the 0 concentration wells (= 100), viability (Kasumi-1 cells; 250 (nM)): 63.5091 and 64.0529 and 62.7885 and 68.6771
Luminescence normalised to mean of the 0 concentration wells (= 100), viability (Kasumi-1 cells; 500 (nM)): 53.3319 and 53.1232 and 53.2129 and 56.1362
Luminescence normalised to mean of the 0 concentration wells (= 100), viability (Kasumi-1 cells; 1000 (nM)): 38.5355 and 39.6577 and 38.9753 and 41.6419
Luminescence normalised to mean of the 0 concentration wells (= 100), viability (Kasumi-1 cells; 2000 (nM, 2U)): 24.2261 and 26.0336 and 25.2148 and 27.1815
Luminescence normalised to mean of the 0 concentration wells (= 100), viability (Kasumi-1 cells; 4000 (nM, 4U)): 16.4845 and 15.7405 and 14.8313 and 16.2263
IC50 (Kasumi-1 cells; 72 h, read-out: IC50, viability of Kasumi-1 AML cells): 527 nM
